# Experimental data published in the OPERA property sets (Mansouri et al. 2018).
# Peptide text beside a SMILES is read from it. * marks the point of attachment. NHtBu = CC(C)(C)N*
smiles,measurement,setting,value
CC(C)c1cnc([N+](=O)[O-])n1C,logP,,1.09
Nc1ccc(F)c(Cl)c1,logP,,2.06
CCC(C)C(NC(=O)C(CC(N)=O)NC(C)=O)C(N)=O (stereo not drawn) (Ac-Asn-Ile-NH2; configuration not given here),logP,,-1.43
CNc1ccc(C)cc1,logP,,2.15
CC(C)Oc1cc(-n2nc(C(C)(C)C)oc2=O)c(Cl)cc1Cl,logP,,4.8
CNC(=O)CSP(=S)(OC)OC,logP,,0.78
O=[N+]([O-])c1ccc2cccccc1-2,logP,,2.59
CON(C)C(=O)Nc1ccc(OCCc2ccc(C)cc2)cc1,logP,,3.81
Cc1cc2[nH]c(=O)c(=O)[nH]c2cc1C,logP,,1.34
Clc1ccc(-c2cccc(Cl)c2Cl)cc1,logP,,5.42
CNC(=O)Oc1ccc(Cl)cc1,logP,,2.01
N#CCc1ccsc1,logP,,1.26
O=C1OC(c2ccccc2)c2ccccc21 (stereo not given),logP,,2.64
Clc1cc(Cl)c2c(Cl)ccc(Cl)c2c1,logP,,5.76
O=C1CCN(c2ccccc2)N1,logP,,0.89
Fc1cccc(CCl)c1,logP,,2.77
O=C(Oc1ccccc1)c1ccccc1,logP,,3.59
COP(=S)(OC)SCSc1ccc(Cl)cc1,logP,,4.82
O=C(O)c1ccc(Oc2ccccc2)cc1,logP,,3.91
CCOC(=O)C(F)(F)C(F)(F)F,logP,,2.12
CC(=O)N(C)N=Nc1ccc(C(N)=O)cc1,logP,,1.37
O=[N+]([O-])c1ccc(N2CCCCC2)cc1,logP,,3.26
CC(=O)N[C@H](C(=O)N[C@H](C(N)=O)C(C)C)[C@@H](C)O (Ac-Thr-Val-NH2),logP,,-1.25
COc1ccc(S(I)=C(N(C)C)N(C)C)c([N+](=O)[O-])c1 (stereo not given),logP,,-0.22
CCCC(C)C1(CC)C(=O)N=C(S)NC1=O (stereo not given),logP,,2.85
CC(=O)Oc1cccc([N+](=O)[O-])c1,logP,,1.82
CCCCCCCOc1ccccc1NC(=O)OCCN1CCCCC1,logP,,5.62
CCCCCF,logP,,2.33
O=CNc1cccc2cccnc12,logP,,1.8
FCCCc1ccccc1,logP,,2.95
Nc1nc(C=Cc2ccc([N+](=O)[O-])o2)no1,logP,,1.3
O=Cc1ccc(Cl)cc1,logP,,2.1
CCCS,logP,,1.81
O=NN(CCCl)C(=O)NC1CCCCC1Cl (stereo not given),logP,,2.73
FC(F)(F)c1ccccc1,logP,,3.01
NC(=O)c1cccc(F)c1,logP,,0.91
O=[N+]([O-])c1ncn(CC(O)CCl)n1 (stereo not given),logP,,0.05
CC(Oc1ccc(Cl)cc1)C(=O)O (stereo not given),logP,,2.31
CNC(=O)Oc1ccc(C)cc1,logP,,1.66
O=C(O)C(c1ccc(Cl)cc1)n1cccc1 (stereo not given),logP,,2.3
COc1ccc(O)c2nccc(C)c12,logP,,2.75
O=C(O)c1cc(O)c(O)c(O)c1,logP,,0.7
CC(C)CN,logP,,0.73
C[C@]12CC[C@H](O)CC1=CC[C@@H]1[C@@H]2CC[C@]2(C)C(=O)CC[C@@H]12,logP,,3.23
CC(N)=S,logP,,-0.26
Cc1cccc(S(I)=C(N(C)C)N(C)C)c1 (stereo not given),logP,,-0.14
O=[N+]([O-])c1nccn1CC(O)CN1CCCCC1 (stereo not given),logP,,1
O=C(Oc1ccc(N=C=S)cc1)c1ccccc1,logP,,4.9
CSc1ncc2ccccc2n1,logP,,2.5
O=C(Nc1cccc2cccnc12)C(F)(F)F,logP,,3.24
Oc1c(Br)cc(Br)c(O)c1Br,logP,,4.37
c1cc2snnc2c2c1CCNC2,logP,,1.35
O=C1C=C(N2CCCC2)C(=O)C=C1N1CCCC1,logP,,1.97
O=C1CN=C(c2ccccc2C(F)(F)F)c2cc([N+](=O)[O-])ccc2N1,logP,,2.51
N=C(N)NS(=O)(=O)c1ccc(N)cc1,logP,,-1.22
Nc1cc(Cl)c(Cl)c(Cl)c1,logP,,3.32
C=CCOc1ccccc1Cc1cnc(N)nc1N,logP,,2.31
COc1cc(CC(C)N)cc(OC)c1Br (stereo not given),logP,,2.44
CCCCOc1c(OC)cc(CCN)cc1OC,logP,,2.32
CC(=O)C1CC1,logP,,0.49
CCC(C)NC(=O)C=C(Br)c1ccccc1 (stereo not given),logP,,3.56
Clc1nc(Cl)c(Cl)c(Cl)c1Cl,logP,,3.53
FC(F)(F)c1nc2ccc(Cl)cc2[nH]1,logP,,3.39
Clc1ccc(-c2cc(Cl)c(Cl)cc2Cl)cc1Cl,logP,,7.12
CCOc1ccc(NC(=O)OC2CCCC2)cc1OCC,logP,,3.33
CCCCC(=O)c1ccc[nH]1,logP,,2.42
O=C(N/N=C/c1cc[nH]c1)Nc1ccccc1,logP,,2.96
O=C(O)c1ccsc1,logP,,1.5
CCCC(N)=O,logP,,-0.21
CCOc1ccccc1,logP,,2.51
CC(=O)Oc1cccc(O)c1,logP,,1.23
COC(=O)CC(=O)OC,logP,,-0.05
S=C1CCCCCN1,logP,,0.75
O=C(O)CONC(=O)c1ccccc1,logP,,-0.27
c1ccc(COc2ccccc2)cc1,logP,,3.79
CC(=O)O[C@H]1C[C@H](O[C@H]2[C@@H](O)C[C@H](O[C@H]3[C@@H](O)C[C@H](O[C@H]4CC[C@@]5(C)[C@H](CC[C@@H]6[C@@H]5C[C@@H](O)[C@]5(C)[C@@H](C7=CC(=O)OC7)CC[C@]65O)C4)O[C@@H]3C)O[C@@H]2C)O[C@H](C)[C@H]1O[C@@H]1O[C@H](CO)[C@@H](O)[C@H](O)[C@H]1O,logP,,0.07
CCCn1cnc([N+](=O)[O-])n1,logP,,0.3
CN(C)Cc1cccnc1,logP,,0.49
CN(C)C(N(C)C)=S(I)c1ccc(Cl)cc1Cl (stereo not given),logP,,0.47
CCOC(=O)c1cccs1,logP,,2.33
Cn1ccc2ccccc21,logP,,2.72
CCN(CC)CCNC(=O)c1ccccc1OC,logP,,1.98
CNC1=CC(=O)C(NC)=CC1=O,logP,,0.34
CC(=O)NC(C)C(=O)NCC(=O)NC(C)C(=O)NC(C)(C)C (stereo not drawn) (Ac-Ala-Gly-Ala-NHtBu; configuration not given here),logP,,-0.6
Clc1ccc(-c2ccc(Cl)c(Cl)c2Cl)cc1,logP,,5.84
C=CCCCCCCCCC(=O)O,logP,,3.86
OCc1cccc(O)c1,logP,,0.49
O=C(O)COc1cccc(NC(=O)c2ccccc2)c1,logP,,1.99
CCNC(C)C,logP,,0.93
COc1ccc(OC(=O)c2ccc(N)cc2O)cc1,logP,,3.07
O=C1C=C(Cl)C(=O)c2ccccc21,logP,,2.29
CC(=O)c1ccc(C(=O)OCCN(C)C)cc1,logP,,1.57
Clc1ccc(-c2c(Cl)cccc2Cl)cc1,logP,,5.75
COC(=O)c1ccsc1,logP,,1.76
CN(C)N=O,logP,,-0.57
CCCCCc1ccc(N)cc1,logP,,3.39
Cc1cc(C)[nH]n1,logP,,1.01
CCCCCc1cc(OC)c(CC(C)N)cc1OC (stereo not given),logP,,4.43
N=C(NCCCCCCNC(=N)NC(=N)Nc1ccc(Cl)cc1)NC(=N)Nc1ccc(Cl)cc1,logD,pH 5.0,0.08
C=C(C)Cl,logP,,2
Cc1ccc(Cl)cc1Cl,logP,,4.24
NS(=O)(=O)c1ccc(Br)cc1,logP,,1.36
O=C(OCC1CCC(n2cnc3c(=O)[nH]cnc32)O1)c1ccccc1 (stereo not given),logP,,0.66
CC(Cl)(Cl)Cl,logP,,2.49
CCCCOc1ccc(OC(=O)NC)cc1,logP,,2.86
CC(=O)ONc1ccnc2ccccc12,logP,,0.97
Fc1ccccc1F,logP,,2.37
CN(N=O)C(=O)Nc1ccccc1,logP,,1.72
CCN(CC)c1cc(C(=O)NN)ccn1,logP,,1.12
CCOC(=O)[C@H](CCc1ccccc1)N[C@@H](C)C(=O)N1CCC[C@H]1C(=O)O,logP,,0.07
CN=Cc1ccccc1,logP,,1.64
COc1cnc2ccccc2n1,logP,,2.31
c1ccc2nc(-c3ccc4ccccc4n3)ccc2c1,logP,,4.31
CNc1nc(-c2ccccc2)c2ccccc2n1,logP,,3.58
OCCCO,logP,,-1.04
